The source of these data is patent US20230086703A1, “N-(4-(5-chloropyridin-3-yl)phenyl)-2-(2-(cyclopropanesulfonamido)pyrimidin-4-yl) butanamide derivatives and related compounds as human CTPS1 inhibitors for the treatment of proliferative diseases” (Step Pharma S.A.S., priority 2019, published 2023).

The assay addresses T1, human CTPS1 (Homo sapiens, UniProt P17812).
T1 construct: FLAG (with GG linker); His8 (with GG linker); purchased Proteros biostructures GmbH
T1 sequence (P17812 1-591): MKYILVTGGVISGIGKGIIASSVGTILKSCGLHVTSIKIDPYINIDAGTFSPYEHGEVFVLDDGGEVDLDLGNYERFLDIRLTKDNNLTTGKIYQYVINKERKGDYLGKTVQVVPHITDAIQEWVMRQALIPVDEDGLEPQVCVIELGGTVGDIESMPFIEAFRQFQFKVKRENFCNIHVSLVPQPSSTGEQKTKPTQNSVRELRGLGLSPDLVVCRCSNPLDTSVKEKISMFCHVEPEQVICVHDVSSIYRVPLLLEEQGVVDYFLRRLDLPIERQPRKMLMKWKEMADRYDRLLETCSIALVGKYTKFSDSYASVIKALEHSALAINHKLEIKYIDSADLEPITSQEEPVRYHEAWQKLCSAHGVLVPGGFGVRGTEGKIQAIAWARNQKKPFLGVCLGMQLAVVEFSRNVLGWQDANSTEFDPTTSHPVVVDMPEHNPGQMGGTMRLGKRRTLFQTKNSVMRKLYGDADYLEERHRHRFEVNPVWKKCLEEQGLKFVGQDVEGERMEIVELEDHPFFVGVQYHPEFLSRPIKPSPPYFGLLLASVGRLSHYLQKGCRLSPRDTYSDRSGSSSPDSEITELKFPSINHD
The experiment in a line: RapidFire/MS-based enzyme selectivity assay (human CTPS1 versus CTPS2), CTPS1 isoform. It is filed as biochemical. The protocol:
Human CTPS1 Versus CTPS2 Selectivity Assessment by RapidFire/MS Analysis.
The enzyme inhibitory activities against each target isoform of interest may be determined for the compounds of the invention using an optimised RapidFire high-throughput mass spectrometry (RF/MS) assay format. RF/MS assays for both human CTPS1 and CTPS2 may be performed in assay buffer consisting of 50 mM HEPES (Merck), 20 mM MgCl2, 5 mM KCl, 1 mM DTT, 0.01% Tween-20, pH to 8.0 accordingly. Human full-length active C-terminal FLAG-His-tag CTPS1 (UniProtKB—P17812, CTPS1[1-591]-[…] (CTPS1[1-591]-SEQ ID NO: 1)) may be obtained from Proteros biostructures GmbH. Human full length active C-terminal FLAG-His-Avi tagged CTPS2 (UniProtKB—Q9NRF8, CTPS2 [1-586]-[…] (CTPS2 [1-586]—SEQ ID NO: 2)) may be obtained from Harker Bio.
Human CTPS (1 or 2) protein may be prepared in 1× assay buffer to the final working protein concentration required for the reaction. A 2 uL volume per well of 2×CTPS (1 or 2) protein may be mixed with 40 nL of compound using acoustic (ECHO) delivery and incubated for 10 minutes at 25° C. Each isoform enzymatic reaction may be subsequently initiated by addition of 2 uL per well of a 2× substrate mix in assay buffer. For hCTPS1: ATP (0.3 mM), UTP (0.2 mM), GTP (0.07 mM) and L-glutamine (0.1 mM). For hCTPS2: ATP (0.1 mM), UTP (0.04 mM), GTP (0.03 mM) and L-glutamine (0.1 mM). Each mixture may be incubated for an appropriate amount of time per isoform within the determined linear phase of the reaction at 25° C. A 80 uL volume of stop solution (1% formic acid with 0.5 uM ^13C9-^15N3-CTP in H2O) may be added and the plate immediately heat-sealed and centrifuged for 10 minutes at 4,000 rpm. Following centrifugation, plates may be loaded onto the Agilent RapidFire microfluidic solid phase extraction system coupled to an API4000 triple quadrupole mass spectrometer (RF/MS) for analysis.
In all cases, the enzyme converts UTP to CTP. Highly specific and sensitive multiple reaction monitoring (MRM) MS methods may be optimised for the detection of the enzymatic reaction product, CTP, and the stable isotope labelled product standard ^13C9-^15N3-CTP. Readout for data analysis may be calculated as the ratio between the peak area of the product CTP and the internal standard ^13C9-^15N3-CTP. For data reporting, the following equation may be used:
(R=ratio/readout, P=product signal area, IS=internal standard signal area)
For each screening plate, the means of the negative (DMSO) and positive control values were used for the calculation of the respective assay window (S/B) and Z′ values. The median of the respective control values was used for calculation of percent inhibition according to the following equation:
(I=Inhibition, Rneq=median of negative control readout values, Rpos=median of positive control readout values, Rsample=sample readout value)
Percentage inhibition was then plotted against compound concentration, and the 50% inhibitory concentration (IC50) was determined from the resultant concentration-response curve.
Fold selectivity between CTPS1 and CTPS2 was subsequently calculated according to the following equation: […]

The mark [1] stands for this setting: Table 16, human CTPS1 over human CTPS2, RapidFire/MS IC50 values.
[2] abbreviates: RapidFire/MS IC50 values of CTPS1 and CTPS2, Table 15.
Setting [3] is: RapidFire/MS IC50 values of CTPS1 and CTPS2, Table 17.

For the compound `CCOc1cncc(-c2ccc(C(=O)NC(C)(C)c3csc(NS(=O)(=O)C4CC4)n3)c(C)c2)n1` [R46, N-(2-(2-(cyclopropanesulfonamido)thiazol-4-yl)propan-2-yl)-4-(6-ethoxypyrazin-2-yl)-2-methyl benzamide], under setting [1], the “Selectivity (fold selectivity between CTPS1 and CTPS2)” value is recorded as “+ (2-30 fold (+))”. Consider `CCC(CC)(NC(=O)c1ccc(-c2cncc(C(F)(F)F)n2)cc1)c1csc(NS(=O)(=O)C2CC2)n1` [R19, N-(3-(2-(cyclopropanesulfon-amido)thiazol-4-yl)pentan-3-yl)-4-(6-(trifluoromethyl)pyrazin-2-yl)benzamide], for which the “Selectivity (fold selectivity between CTPS1 and CTPS2)” value under setting [1] was “++ (>30-60 fold (++))”.

As to `Cc1cc(-c2cncc(C(F)(F)F)n2)ccc1C(=O)NC(C)(C)c1nc(NS(=O)(=O)C2CC2)sc1C` [R76, N-(2-(2-(cyclopropanesulfon-amido)-5-methylthiazol-4-yl)propan-2-yl)-2-methyl-4-(6-(trifluoromethyl)pyrazin-2-yl)benzamide], the “Selectivity (fold selectivity between CTPS1 and CTPS2)” value under setting [1] is listed as “+ (2-30 fold (+))”. Consider `CC(C)(C(=O)Nc1ccc(-c2cncc(C3CC3)n2)cn1)c1ccnc(NS(=O)(=O)C2CC2)n1` [P125, 2-(2-(cyclopropanesulfonamido)pyrimidin-4-yl)-N-(5-(6-cyclopropylpyrazin-2-yl)pyridin-2-yl)-2-methylpropanamide], for which the “Selectivity (fold selectivity between CTPS1 and CTPS2)” value under setting [2] is recorded as “++ (>30-60 fold (++))”.

Turning to `CCOc1cncc(-c2ccc(NC(=O)C3(c4ccnc(NS(=O)(=O)C5CC5)n4)CCN(S(C)(=O)=O)CC3)nc2)n1` [P251], under setting [3], the “Selectivity (fold selectivity between CTPS1 and CTPS2)” value is “+++ (>60 fold (+++))”.

For the compound `CCC(NC(=O)c1ccc(-c2cncc(F)c2)cc1)c1csc(NS(=O)(=O)C2CC2)n1` (single isomer, unassigned) [R69, N-(1-(2-(cyclopropanesulfon-amido)thiazol-4-yl)propyl)-4-(5-fluoropyridin-3-yl)benzamide], the “Selectivity (fold selectivity between CTPS1 and CTPS2)” value under setting [1] was “+++ (>60 fold (+++))”. As for `CCOc1cncc(-c2ccc(NC(=O)Cc3ccnc(NS(=O)(=O)C4CC4)n3)cc2)n1` [P18, 2-(2-(cyclopropanesulfonamido)pyrimidin-4-yl)-N-(4-(6-ethoxypyrazin-2-yl)phenyl)acetamide], the “Selectivity (fold selectivity between CTPS1 and CTPS2)” value under setting [2] is “++ (>30-60 fold (++))”. For `CC(C)(NC(=O)c1ccc(-c2cncc(Cl)n2)cn1)c1csc(NS(=O)(=O)C2CC2)n1` [R25, 5-(6-chloropyrazin-2-yl)-N-(2-(2-(cyclopropanesulfonamido)thiazol-4-yl)propan-2-yl)picolinamide], the “Selectivity (fold selectivity between CTPS1 and CTPS2)” value under setting [1] was “++ (>30-60 fold (++))”. As for `CCOc1cncc(-c2ccc(NC(=O)C(CC)c3cncc(NS(=O)(=O)C4CC4)n3)nc2)n1` (stereo not drawn) [P201, 2-(6-(cyclopropanesulfonamido)pyrazin-2-yl)-N-(5-(6-ethoxypyrazin-2-yl)pyridin-2-yl)butanamide], the “Selectivity (fold selectivity between CTPS1 and CTPS2)” value under setting [2] is reported as “+++ (>60 fold (+++))”. As to `CCOc1cncc(-c2ccc(C(=O)NC3(c4csc(NS(=O)(=O)C5CC5)n4)CC3)c(F)c2)n1` [R82, N-(1-(2-(cyclopropanesulfon-amido)thiazol-4-yl)cyclo-propyl)-4-(6-ethoxypyrazin-2-yl)-2-fluorobenzamide], the “Selectivity (fold selectivity between CTPS1 and CTPS2)” value under setting [1] was “+++ (>60 fold (+++))”. As to `CCOc1cncc(-c2ccc(NC(=O)C3(c4ccnc(NS(=O)(=O)N(C)C)n4)CCOCC3)nc2)n1` [P248], the “Selectivity (fold selectivity between CTPS1 and CTPS2)” value under setting [3] is “+++ (>60 fold (+++))”. As for `CCC(C(=O)Nc1ccc(-c2cncc(C(F)(F)F)n2)cc1)c1ccnc(NS(=O)(=O)C2CC2)n1` (stereo not drawn) [P103, 2-(2-(cyclopropanesulfonamido)pyrimidin-4-yl)-N-(4-(6-(trifluoromethyl)pyrazin-2-yl)phenyl)butanamide], the “Selectivity (fold selectivity between CTPS1 and CTPS2)” value under setting [2] was “+ (2-30 fold (+))”. Still for that read-out and setting: the entry for `CCOc1cncc(-c2cnc(NC(=O)C(CC)c3ccnc(NS(=O)(=O)C4CC4)n3)c(F)c2)n1` (stereo not drawn) [P162, 2-(2-(cyclopropanesulfonamido)pyrimidin-4-yl)-N-(5-(6-ethoxypyrazin-2-yl)-3-fluoropyridin-2-yl)butanamide] is “++ (>30-60 fold (++))”. Take `CCOc1cncc(-c2cnc(C(=O)NC(C)(C)c3csc(NS(=O)(=O)C4CC4)n3)c(F)c2)n1` [R23, N-(2-(2-(cyclopropanesulfon-amido)thiazol-4-yl)propan-2-yl)-5-(6-ethoxypyrazin-2-yl)-3-fluoropicolinamide]: under setting [1], the “Selectivity (fold selectivity between CTPS1 and CTPS2)” value is given as “++ (>30-60 fold (++))”.

For the compound `CCOc1cncc(-c2ccc(NC(=O)C(CCOC)c3ccnc(NS(=O)(=O)C4CC4)n3)c(F)c2)n1` (stereo not drawn) [P146, 2-(2-(cyclopropanesulfonamido)pyrimidin-4-yl)-N-(4-(6-ethoxypyrazin-2-yl)-2-fluorophenyl)-4-methoxybutanamide], the “Selectivity (fold selectivity between CTPS1 and CTPS2)” value under setting [2] is recorded as “+++ (>60 fold (+++))”. Consider `CCOc1cncc(-c2ccc(NC(=O)C(C)(CC)c3ccnc(NS(=O)(=O)C4CC4)n3)nc2)n1` (stereo not drawn) [P163, 2-(2-(cyclopropanesulfonamido)pyrimidin-4-yl)-N-(5-(6-ethoxypyrazin-2-yl)pyridin-2-yl)-2-methylbutanamide], for which the “Selectivity (fold selectivity between CTPS1 and CTPS2)” value under setting [2] was “+++ (>60 fold (+++))”.

Turning to `CCOc1cncc(-c2ccc(NC(=O)C(CC)c3ccnc(NS(=O)(=O)C4CC4)n3)nc2)n1` (stereo not drawn) [P88, 2-(2-(cyclopropanesulfonamido)pyrimidin-4-yl)-N-(5-(6-ethoxypyrazin-2-yl)pyridin-2-yl)butanamide], the “Selectivity (fold selectivity between CTPS1 and CTPS2)” value under setting [2] is recorded as “+++ (>60 fold (+++))”.

On to `CCC(C(=O)Nc1ccc(-c2cncc(OC)n2)cc1F)c1ccnc(NS(=O)(=O)C2CC2)n1` (stereo not drawn) [P95, 2-(2-(cyclopropanesulfonamido)pyrimidin-4-yl)-N-(2-fluoro-4-(6-methoxypyrazin-2-yl)phenyl)butanamide], for which, under setting [2], the “Selectivity (fold selectivity between CTPS1 and CTPS2)” value is “+ (2-30 fold (+))”. Take `CCOc1cncc(-c2ccc(C(=O)NC(CCOC)c3csc(NS(=O)(=O)C4CC4)n3)c(F)c2)n1` (stereo not drawn) [R88, N-(1-(2-(cyclopropanesulfon-amido)thiazol-4-yl)-3-methoxypropyl)-4-(6-ethoxypyrazin-2-yl)-2-fluorobenzamide]: under setting [1], the “Selectivity (fold selectivity between CTPS1 and CTPS2)” value is on record as “+++ (>60 fold (+++))”.

`CC(C)(NC(=O)c1ccc(-c2cncc(C(F)(F)F)n2)cc1)c1csc(NS(=O)(=O)C2CC2)n1` [R51, N-(2-(2-(cyclopropanesulfon-amido)thiazol-4-yl)propan-2-yl)-4-(6-(trifluoromethyl)pyrazin-2-yl)benzamide]: the “Selectivity (fold selectivity between CTPS1 and CTPS2)” value under setting [1] was “++ (>30-60 fold (++))”.

As for `CC(C)Oc1cncc(-c2ccc(C(=O)NC(C)(C)c3csc(NS(=O)(=O)C4CC4)n3)cc2)n1` [R56, N-(2-(2-(cyclopropanesulfon-amido)thiazol-4-yl)propan-2-yl)-4-(6-isopropoxypyrazin-2-yl)benzamide], the “Selectivity (fold selectivity between CTPS1 and CTPS2)” value under setting [1] is recorded as “+++ (>60 fold (+++))”.
